Common to all, as to test: relative viability (nuclei count vs DMSO), 5 days (fraction); higher = more cells survive
Compound in experiment [1]: COc1ccc(-c2ccc3c(N4CCOC[C@@H]4C)nc(N4CCOC[C@@H]4C)nc3n2)cc1CO [AZD8055] + Cc1nc(Nc2ncc(C(=O)Nc3c(C)cccc3Cl)s2)cc(N2CCN(CCO)CC2)n1 [Dasatinib] (partner 0.075 µM)
The gist of the method: (§1)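 Relative viability divides the nuclei count in treated wells by that in vehicle wells. Lung cancer cell lines were seeded in 1536-well plates, dosed by pin tool the next day, and fixed and stained after 5 days in one step with final 0.05% Triton X-100, 1% formaldehyde and 1 ug/ml Hoechst. Dosing was a single drug or a fixed anchor-drug dose plus five library-drug doses (not always all listed) in √10 steps, and values are medians of duplicate plates imaged at 4×.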

Compound in experiment [2]: COc1ccc(-c2ccc3c(N4CCOC[C@@H]4C)nc(N4CCOC[C@@H]4C)nc3n2)cc1CO [AZD8055] + O=C(CCCCCCC(=O)Nc1ccccc1)NO [Vorinostat] (partner 1 µM)
The essentials:
as §1

Compound in experiment [3]: COc1ccc(-c2ccc3c(N4CCOC[C@@H]4C)nc(N4CCOC[C@@H]4C)nc3n2)cc1CO [AZD8055] + C[C@@H](Oc1cc(-c2cnn(C3CCNCC3)c2)cnc1N)c1c(Cl)ccc(F)c1Cl [Crizotinib] (partner 1 µM)
The essentials: as §1

Compound in experiment [4]: COc1ccc(-c2ccc3c(N4CCOC[C@@H]4C)nc(N4CCOC[C@@H]4C)nc3n2)cc1CO [AZD8055] + CC1(C)CCC(c2ccc(Cl)cc2)=C(CN2CCN(c3ccc(C(=O)NS(=O)(=O)c4ccc(N[C@H](CCN5CCOCC5)CSc5ccccc5)c(S(=O)(=O)C(F)(F)F)c4)cc3)CC2)C1 [Navitoclax] (partner 0.5 µM)
The gist of the method:
as §1

For NCI-H2023, the relative viability amounted to 0.568 in experiment [1] (first compound 0.01 µM); 0.358 in experiment [1] (first compound 0.03162 µM); 0.166 in experiment [1] (first compound 0.1 µM); 0.0954 in experiment [1] (first compound 0.3162 µM); 0.103 in experiment [1] (first compound 1 µM); 0.65 in experiment [2] (first compound 0.01 µM). In addition, the relative viability in experiment [2] (first compound 0.03162 µM) is 0.405; in experiment [2] (first compound 0.1 µM) it was 0.335; in experiment [2] (first compound 0.3162 µM) it was 0.14; in experiment [2] (first compound 1 µM) it was 0.115; in experiment [3] (first compound 0.01 µM), 0.521; in experiment [3] (first compound 0.03162 µM), 0.507. For the same cell line, the relative viability in experiment [3] (first compound 0.1 µM) was 0.339; in experiment [3] (first compound 0.3162 µM), 0.119; in experiment [3] (first compound 1 µM), 0.119; in experiment [4] (first compound 0.01 µM) it was 0.951; in experiment [4] (first compound 0.03162 µM), 0.871; in experiment [4] (first compound 0.1 µM), 0.598. For the same cell line, the relative viability is 0.249 in experiment [4] (first compound 0.3162 µM) and 0.181 in experiment [4] (first compound 1 µM).
As for COR-L 105, the relative viability in experiment [1] (first compound 0.01 µM) turned out to be 0.359; in experiment [1] (first compound 0.03162 µM), 0.281; in experiment [1] (first compound 0.1 µM), 0.23; in experiment [1] (first compound 0.3162 µM) it was 0.2; in experiment [1] (first compound 1 µM), 0.226; in experiment [2] (first compound 0.01 µM), 0.865. In addition, the relative viability in experiment [2] (first compound 0.03162 µM) stood at 0.766; in experiment [2] (first compound 0.1 µM), 0.805; in experiment [2] (first compound 0.3162 µM), 0.516; in experiment [2] (first compound 1 µM), 0.421; in experiment [3] (first compound 0.01 µM), 0.807; in experiment [3] (first compound 0.03162 µM) it was 0.875. Moreover, the relative viability in experiment [3] (first compound 0.1 µM) stood at 0.706; in experiment [3] (first compound 0.3162 µM), 0.465; in experiment [3] (first compound 1 µM), 0.292; in experiment [4] (first compound 0.01 µM), 0.914; in experiment [4] (first compound 0.03162 µM), 0.961; in experiment [4] (first compound 0.1 µM) it was 0.596. The relative viability in experiment [4] (first compound 0.3162 µM) came out at 0.358; in experiment [4] (first compound 1 µM), 0.39.
On to NCI-H1734, for which the relative viability in experiment [1] (first compound 0.01 µM) turned out to be 0.563; in experiment [1] (first compound 0.03162 µM), 0.366; in experiment [1] (first compound 0.1 µM), 0.318; in experiment [1] (first compound 0.3162 µM), 0.152; in experiment [1] (first compound 1 µM), 0.162; in experiment [2] (first compound 0.01 µM), 0.822. The relative viability in experiment [2] (first compound 0.03162 µM) was 0.571; in experiment [2] (first compound 0.1 µM), 0.506; in experiment [2] (first compound 0.3162 µM), 0.303; in experiment [2] (first compound 1 µM), 0.246; in experiment [3] (first compound 0.01 µM) it was 0.734; in experiment [3] (first compound 0.03162 µM) it was 0.587. In addition, the relative viability came to 0.472 in experiment [3] (first compound 0.1 µM); 0.256 in experiment [3] (first compound 0.3162 µM); 0.282 in experiment [3] (first compound 1 µM); 1.04 in experiment [4] (first compound 0.01 µM); 0.742 in experiment [4] (first compound 0.03162 µM); 0.472 in experiment [4] (first compound 0.1 µM). The relative viability in experiment [4] (first compound 0.3162 µM) was 0.316; in experiment [4] (first compound 1 µM) it was 0.173.
With NCI-H3122, the relative viability in experiment [1] (first compound 0.01 µM) was 0.653; in experiment [1] (first compound 0.03162 µM) it was 0.684; in experiment [1] (first compound 0.1 µM), 0.783; in experiment [1] (first compound 0.3162 µM), 0.223; in experiment [1] (first compound 1 µM), 0.292; in experiment [2] (first compound 0.01 µM), 0.809. The relative viability in experiment [2] (first compound 0.03162 µM) stood at 0.999; in experiment [2] (first compound 0.1 µM) it was 0.877; in experiment [2] (first compound 0.3162 µM), 0.442; in experiment [2] (first compound 1 µM), 0.338; in experiment [3] (first compound 0.01 µM) it was 0.248; in experiment [3] (first compound 0.03162 µM), 0.238. Moreover, the relative viability in experiment [3] (first compound 0.1 µM) is 0.183; in experiment [3] (first compound 0.3162 µM), 0.174; in experiment [3] (first compound 1 µM) it was 0.171; in experiment [4] (first compound 0.01 µM) it was 1.13; in experiment [4] (first compound 0.03162 µM), 1.05; in experiment [4] (first compound 0.1 µM), 0.687. Further, the figures for the relative viability in experiment [4] (first compound 0.3162 µM) and in experiment [4] (first compound 1 µM) were 0.435 and 0.348, respectively.
For CAL-12T, the relative viability in experiment [1] (first compound 0.01 µM) was 0.536; in experiment [1] (first compound 0.03162 µM), 0.388; in experiment [1] (first compound 0.1 µM), 0.34; in experiment [1] (first compound 0.3162 µM) it was 0.136; in experiment [1] (first compound 1 µM) it was 0.12; in experiment [2] (first compound 0.01 µM), 0.954. Besides, the relative viability in experiment [2] (first compound 0.03162 µM) is 0.631; in experiment [2] (first compound 0.1 µM) it was 0.598; in experiment [2] (first compound 0.3162 µM), 0.276; in experiment [2] (first compound 1 µM), 0.217; in experiment [3] (first compound 0.01 µM), 0.557; in experiment [3] (first compound 0.03162 µM), 0.607. In addition, the relative viability was 0.521 in experiment [3] (first compound 0.1 µM); 0.308 in experiment [3] (first compound 0.3162 µM); 0.165 in experiment [3] (first compound 1 µM); 1.25 in experiment [4] (first compound 0.01 µM); 1.24 in experiment [4] (first compound 0.03162 µM); 0.838 in experiment [4] (first compound 0.1 µM). Further, the relative viability in experiment [4] (first compound 0.3162 µM) came out at 0.35; in experiment [4] (first compound 1 µM), 0.23.
Consider HCC-78, for which the relative viability is 0.328 in experiment [1] (first compound 0.01 µM); 0.306 in experiment [1] (first compound 0.03162 µM); 0.222 in experiment [1] (first compound 0.1 µM); 0.233 in experiment [1] (first compound 0.3162 µM); 0.247 in experiment [1] (first compound 1 µM); 0.428 in experiment [2] (first compound 0.01 µM). Besides, the relative viability in experiment [2] (first compound 0.03162 µM) came out at 0.394; in experiment [2] (first compound 0.1 µM), 0.38; in experiment [2] (first compound 0.3162 µM) it was 0.398; in experiment [2] (first compound 1 µM) it was 0.321; in experiment [3] (first compound 0.01 µM), 0.303; in experiment [3] (first compound 0.03162 µM) it was 0.307. The relative viability turned out to be 0.233 in experiment [3] (first compound 0.1 µM); 0.213 in experiment [3] (first compound 0.3162 µM); 0.19 in experiment [3] (first compound 1 µM); 0.817 in experiment [4] (first compound 0.01 µM); 0.574 in experiment [4] (first compound 0.03162 µM); 0.339 in experiment [4] (first compound 0.1 µM). Besides, the relative viability in experiment [4] (first compound 0.3162 µM) stood at 0.238; in experiment [4] (first compound 1 µM), 0.198.
For the cell line NCI-H2085, the relative viability in experiment [1] (first compound 0.01 µM) was 0.205; in experiment [1] (first compound 0.03162 µM), 0.201; in experiment [1] (first compound 0.1 µM) it was 0.199; in experiment [1] (first compound 0.3162 µM) it was 0.217; in experiment [1] (first compound 1 µM), 0.195; in experiment [2] (first compound 0.01 µM), 0.645. For the same cell line, the relative viability in experiment [2] (first compound 0.03162 µM) came to 0.554; in experiment [2] (first compound 0.1 µM), 0.49; in experiment [2] (first compound 0.3162 µM), 0.44; in experiment [2] (first compound 1 µM), 0.363; in experiment [3] (first compound 0.01 µM), 0.927; in experiment [3] (first compound 0.03162 µM), 0.805. Further, the relative viability in experiment [3] (first compound 0.1 µM) stood at 0.639; in experiment [3] (first compound 0.3162 µM) it was 0.359; in experiment [3] (first compound 1 µM), 0.315; in experiment [4] (first compound 0.01 µM), 1.11; in experiment [4] (first compound 0.03162 µM), 0.945; in experiment [4] (first compound 0.1 µM) it was 0.672. For the same cell line, the relative viability was 0.417 in experiment [4] (first compound 0.3162 µM) and 0.33 in experiment [4] (first compound 1 µM).

(Values after the supplement of paper PMC10307832.)
